Measured values taken from patent US20150065709A1, “Aminoquinazoline Derivative And Use Thereof In Preparing Anti-Malignant Tumor Medicament” (METABOMICS, INC, priority 2012, published 2015).
Read-outs that look alike come from different tables or passages of the source.

Experiments:
EGFR = EGFR (Homo sapiens, UniProt P00533); assay: Caliper Mobility Shift Assay, inhibition of EGFR kinase activity; type: biochemical
EGFR^L858R = EGFR^L858R (Homo sapiens, UniProt P00533, L858R); assay: Caliper Mobility Shift Assay, mutant EGFR kinase; type: biochemical; conditions: read-out: Inhibition of Kinase Activity (IC50, nM) EGFR^L858R
EGFR^T790M = EGFR^T790M (Homo sapiens, UniProt P00533, T790M); assay: Caliper Mobility Shift Assay, mutant EGFR kinase; type: biochemical; conditions: read-out: Inhibition of Kinase Activity (IC50, nM) EGFR^T790M
EGFR kinases = EGFR kinases (Homo sapiens, UniProt P00533); assay: Reversible inhibition test of enzyme activity of EGFR kinases; type: biochemical
[1] = tested on: H1975 (non-small cell lung cancer); assay: Transplanted tumor in nude mice, further H1975 model; type: in vivo, nude mice (BALB/c); conditions: 6.7, 13.4, 20.1 mg/kg/day orally for 21 days
Excerpt: (§1) Furthermore, more pharmacological models of tumor cell lines in nude mice were utilized to validate the inhibitory effects of compound Ie. The test method was specifically described as follows: H1975, A549, HCC827, A431, N87, MDA-MD-468 and CAL27 tumor cells respectively were inoculated into nude mice (BALB/c, male, 5-6 weeks of age), and when the mean tumor volume reaches 150 mm^3 mice was randomized into groups. The H1975 tumor model in nude mice includes one positive control group and three dosage groups of compound Ie (6.7 mg/kg/day, 13.4 mg/kg/day, and 20.1 mg/kg/day. The A549 tumor model in nude mice includes one positive control group, two dosage groups of compound Ie (10 mg/kg/day, 20 mg/kg/day), and one dosage group of Docetaxel (12 mg/kg/day). The HCC827 tumor model in nude mice includes one positive control group, two dosage groups of compound Ie (0.5 mg/kg/day, 2.5 mg/kg/day), and one dosage group of Erlotinib (12.5 mg/kg/day). The A431 tumor model in nude mice includes one positive control group, two dosage groups of compound Ie (2.5 mg/kg/day, 5 mg/kg/day), and one dosage group of Erlotinib (50 mg/kg/day). […] The tumor size and body weight of nude mice were recorded twice weekly from the first day of administration. The tumor volume was calculated using formula (1×w^2), wherein 1 and w respectively represents the maximum and minimum size in each measurement. […]

[2] = tested on: A549 (non-small cell lung cancer); assay: Transplanted tumor in nude mice, A549 model; type: in vivo, nude mice (BALB/c)
Excerpt: as §1

A431(EGFR) = assay: Transplanted tumor in nude mice, A431 model; type: in vivo, nude mice (BALB/c)
Excerpt: as §1

N87(gastric cancer) = assay: Transplanted tumor in nude mice, N87 model; type: in vivo, nude mice (BALB/c)
Excerpt: as §1

[3] = tested on: MDA-MD-468 (breast cancer); assay: Transplanted tumor in nude mice, MDA-MD-468 model; type: in vivo, nude mice (BALB/c)
Excerpt: as §1

[4] = tested on: CAL27 (head and neck cancer); assay: Transplanted tumor in nude mice, CAL27 model; type: in vivo, nude mice (BALB/c); conditions: 10 mg/kg/day orally for 21 days
Excerpt: as §1

[5] = Pharmacokinetic experiments in CD-1 mice; type: in vivo; conditions: male, mouse, plasma; for half-life: read-out: Terminal t1/2 (converted)
Procedure: Experiment animals: CD-1 mice, male, 6-7 weeks of age; body weight: 20-25 g; Preparation of samples: the test compounds respectively were formulated to 0.2 mg/mL (for intravenous administration) and 1.0 mg/mL (for oral administration) for use. Administration routes: oral administration/intravenous administration. Amount and frequency of administration: 5 mL/kg for single administration.
Sample collection: blood was collected at the time points of 5 min, 15 min, 30 min, 1 h, 2 h, 4 h, 8 h and 24 h, about […] whole blood was collected from 3 animals at each time point. All of the animals were euthanized after the experiments.
Sample analysis: the collected samples were detected by LC-MS/MS, and the instrument model is SHIMADZU20A-API4000.
(§2) Pharmacokinetic data analysis: the obtained plasma concentration data were fitted and calculated using WinNolin according to non-compartment model.

[6] = Long-term toxicity experiment (28 days) in rats; type: in vivo; conditions: for toxicity reaction: po
Procedure: Experiment Animals: rats, male, 6-8 weeks of age, body weight: 180-250 g; dogs, male, about 24 months, body weight: 7-10 kg.
Preparation of sample: in rat's experiments the mixed formulation powder of the compound Ie was formulated into 0.1, 0.3 and 1 mg/mL homogeneous suspension for use; administration route: oral administration; […]. In dog's experiments the tablets of compound Ie were fed to dogs. […].
Sample collection: blood was collected at the time points of 1, 10, 20 and 28 days respectively, about 120-200 μL whole blood was collected from 3 animals at each time point. Blood was collected at 1 h, 4 h, 8 h and 24 h after administration.
Sample analysis: the collected samples were detected by LC-MS/MS, and the instrument model was SHIMADZU20 A-API4000.
as §2

[7] = 5, 10 mg/kg/day orally for 21 days

Chain of EGFR (P00533 25-1210): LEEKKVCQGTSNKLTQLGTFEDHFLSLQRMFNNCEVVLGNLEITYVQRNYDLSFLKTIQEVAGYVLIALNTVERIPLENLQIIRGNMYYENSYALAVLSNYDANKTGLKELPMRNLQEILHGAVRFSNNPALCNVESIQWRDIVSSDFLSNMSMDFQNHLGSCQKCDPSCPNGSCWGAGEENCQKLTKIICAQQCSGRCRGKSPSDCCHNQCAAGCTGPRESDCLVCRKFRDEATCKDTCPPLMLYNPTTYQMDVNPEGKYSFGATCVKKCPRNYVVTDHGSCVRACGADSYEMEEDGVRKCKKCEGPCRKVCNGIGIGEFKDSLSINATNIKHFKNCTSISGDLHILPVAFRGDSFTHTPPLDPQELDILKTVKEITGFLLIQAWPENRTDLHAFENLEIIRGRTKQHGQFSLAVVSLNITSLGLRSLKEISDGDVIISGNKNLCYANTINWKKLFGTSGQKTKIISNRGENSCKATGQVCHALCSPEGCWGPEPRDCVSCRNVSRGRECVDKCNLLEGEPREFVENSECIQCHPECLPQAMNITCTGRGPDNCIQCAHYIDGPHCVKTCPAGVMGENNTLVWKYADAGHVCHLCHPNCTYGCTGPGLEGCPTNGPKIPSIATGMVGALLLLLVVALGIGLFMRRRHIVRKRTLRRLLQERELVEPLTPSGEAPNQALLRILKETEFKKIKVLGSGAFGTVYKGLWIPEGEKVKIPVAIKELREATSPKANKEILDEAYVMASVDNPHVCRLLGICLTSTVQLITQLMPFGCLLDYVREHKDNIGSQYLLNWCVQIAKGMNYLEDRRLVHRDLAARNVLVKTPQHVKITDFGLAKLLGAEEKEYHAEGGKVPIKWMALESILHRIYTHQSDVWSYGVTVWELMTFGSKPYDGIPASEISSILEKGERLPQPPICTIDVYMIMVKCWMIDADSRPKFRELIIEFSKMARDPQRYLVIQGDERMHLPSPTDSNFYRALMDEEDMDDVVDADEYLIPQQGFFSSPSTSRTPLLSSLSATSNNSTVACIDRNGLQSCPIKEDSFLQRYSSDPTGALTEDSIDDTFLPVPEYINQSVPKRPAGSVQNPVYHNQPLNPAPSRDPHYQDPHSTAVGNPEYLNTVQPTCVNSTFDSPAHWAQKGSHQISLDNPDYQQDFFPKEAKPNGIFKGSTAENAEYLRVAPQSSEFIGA
Chain of EGFR kinases (P00533 25-1210): as above
Chain of EGFR^L858R (P00533 25-1210 L858R): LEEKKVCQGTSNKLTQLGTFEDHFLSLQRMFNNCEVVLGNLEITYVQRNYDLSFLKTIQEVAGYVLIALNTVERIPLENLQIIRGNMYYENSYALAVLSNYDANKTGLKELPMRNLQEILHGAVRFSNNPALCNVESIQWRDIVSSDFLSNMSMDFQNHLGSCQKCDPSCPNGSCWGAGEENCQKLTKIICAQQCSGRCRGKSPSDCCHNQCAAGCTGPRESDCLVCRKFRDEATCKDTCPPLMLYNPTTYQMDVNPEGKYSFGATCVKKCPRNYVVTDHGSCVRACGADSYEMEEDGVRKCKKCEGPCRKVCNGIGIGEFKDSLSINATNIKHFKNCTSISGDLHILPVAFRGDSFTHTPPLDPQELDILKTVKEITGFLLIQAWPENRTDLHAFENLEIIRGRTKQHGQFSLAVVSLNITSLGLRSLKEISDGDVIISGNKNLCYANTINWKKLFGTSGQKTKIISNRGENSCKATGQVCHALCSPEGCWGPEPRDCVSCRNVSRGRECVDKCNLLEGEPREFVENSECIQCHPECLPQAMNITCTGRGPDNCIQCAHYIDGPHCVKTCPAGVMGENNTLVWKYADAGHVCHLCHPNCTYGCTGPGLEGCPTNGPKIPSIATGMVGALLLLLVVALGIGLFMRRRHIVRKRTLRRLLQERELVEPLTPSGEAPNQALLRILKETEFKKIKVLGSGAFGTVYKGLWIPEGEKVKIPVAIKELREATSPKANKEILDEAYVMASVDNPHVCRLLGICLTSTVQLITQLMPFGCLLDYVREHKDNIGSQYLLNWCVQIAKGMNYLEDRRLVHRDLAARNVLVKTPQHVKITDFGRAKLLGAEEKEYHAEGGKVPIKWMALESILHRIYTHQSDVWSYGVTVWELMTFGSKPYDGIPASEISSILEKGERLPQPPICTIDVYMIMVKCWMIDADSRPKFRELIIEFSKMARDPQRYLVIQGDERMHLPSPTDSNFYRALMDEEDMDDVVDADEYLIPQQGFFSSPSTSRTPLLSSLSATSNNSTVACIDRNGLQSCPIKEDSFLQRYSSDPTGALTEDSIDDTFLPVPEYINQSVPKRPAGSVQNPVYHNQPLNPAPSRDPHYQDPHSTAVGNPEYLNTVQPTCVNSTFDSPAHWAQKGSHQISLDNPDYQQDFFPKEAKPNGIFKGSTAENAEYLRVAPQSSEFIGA
Chain of EGFR^T790M (P00533 25-1210 T790M): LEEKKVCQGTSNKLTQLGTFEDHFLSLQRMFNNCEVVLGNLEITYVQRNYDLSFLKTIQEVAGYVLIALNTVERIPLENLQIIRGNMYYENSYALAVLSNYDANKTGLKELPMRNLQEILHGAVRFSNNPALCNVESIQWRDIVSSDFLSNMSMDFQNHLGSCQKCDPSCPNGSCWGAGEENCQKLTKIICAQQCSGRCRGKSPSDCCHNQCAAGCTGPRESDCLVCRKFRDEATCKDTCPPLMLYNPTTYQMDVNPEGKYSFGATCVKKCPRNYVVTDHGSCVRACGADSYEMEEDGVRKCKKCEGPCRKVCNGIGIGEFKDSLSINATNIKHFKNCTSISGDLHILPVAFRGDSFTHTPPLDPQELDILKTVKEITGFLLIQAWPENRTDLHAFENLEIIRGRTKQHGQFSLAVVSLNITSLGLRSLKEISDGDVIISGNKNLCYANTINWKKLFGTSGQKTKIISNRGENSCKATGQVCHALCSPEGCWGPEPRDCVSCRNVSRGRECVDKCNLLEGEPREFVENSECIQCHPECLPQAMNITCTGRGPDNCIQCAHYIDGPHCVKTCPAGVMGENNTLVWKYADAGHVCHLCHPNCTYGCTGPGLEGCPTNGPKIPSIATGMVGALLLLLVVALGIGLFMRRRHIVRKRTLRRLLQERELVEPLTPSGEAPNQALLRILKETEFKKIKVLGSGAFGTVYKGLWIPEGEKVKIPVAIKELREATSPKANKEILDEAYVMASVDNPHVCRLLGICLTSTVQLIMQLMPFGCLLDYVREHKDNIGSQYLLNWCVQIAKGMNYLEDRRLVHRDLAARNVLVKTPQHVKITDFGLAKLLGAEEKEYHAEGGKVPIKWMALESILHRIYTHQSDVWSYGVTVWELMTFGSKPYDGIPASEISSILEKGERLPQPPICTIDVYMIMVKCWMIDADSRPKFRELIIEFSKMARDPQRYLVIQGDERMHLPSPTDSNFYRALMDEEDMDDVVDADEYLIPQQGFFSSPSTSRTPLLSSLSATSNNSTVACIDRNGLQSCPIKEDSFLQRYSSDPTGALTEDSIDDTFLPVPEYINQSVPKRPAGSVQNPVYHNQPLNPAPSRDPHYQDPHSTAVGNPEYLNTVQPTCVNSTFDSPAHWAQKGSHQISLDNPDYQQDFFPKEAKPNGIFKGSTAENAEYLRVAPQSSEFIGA

Q: For CN(C)C/C=C/C(=O)Nc1cc2c(Nc3ccc(F)c(Cl)c3)ncnc2cc1OC(F)F [Compound Ie], which IC50 (EGFR) is on record?
A: 0.4 nM

Q: What about the “inhibitory effect on EGFR kinases relative to Afatinib, Neratinib and Gefitinib” value (EGFR) of the same compound?
A: over two times

Q: What about the IC50 (EGFR^L858R) of the same compound?
A: 0.65 nM

Q: And the IC50 (EGFR^T790M)?
A: 4.6 nM

Q: What about the “reversibility of inhibition of EGFR kinases” value (EGFR kinases) of the same compound?
A: irreversibility

Q: And the “inhibitory and therapeutic effects on H1975 tumor model” value [1]?
A: strong inhibitory effects and therapeutic effects

Q: What about the “inhibitory and therapeutic effects on A549 tumor model” value ([2]; 10, 20 mg/kg/day orally for 21 days) of the same compound?
A: strong inhibitory effects and therapeutic effects

Q: What about the “inhibitory effects on tumor cell growth compared with other drugs, A549 model” value ([2]; versus Docetaxel (12 mg/kg/day)) of the same compound?
A: stronger inhibitory effects

Q: What about the “inhibitory and therapeutic effects on A431 tumor model” value (A431(EGFR); 2.5, 5 mg/kg/day orally for 21 days) of the same compound?
A: strong inhibitory effects and therapeutic effects

Q: What about the “inhibitory effects on tumor cell growth compared with other drugs, A431 model” value (A431(EGFR); versus Erlotinib (50 mg/kg/day)) of the same compound?
A: stronger inhibitory effects

Q: What about the “inhibitory and therapeutic effects on N87 tumor model” value (N87(gastric cancer); [7]) of the same compound?
A: strong inhibitory effects and therapeutic effects

Q: And the “inhibitory effects on tumor cell growth compared with other drugs, N87 model” value (N87(gastric cancer); versus Lapatinib (90 mg/kg/day, twice daily))?
A: stronger inhibitory effects

Q: And the “inhibitory and therapeutic effects on MDA-MD-468 tumor model” value [3, 7]?
A: strong inhibitory effects and therapeutic effects

Q: What about the “inhibitory effects on tumor cell growth compared with other drugs, MDA-MD-468 model” value ([3]; versus Docetaxel (12 mg/kg/week) and Afatinib (30 mg/kg/day)) of the same compound?
A: stronger inhibitory effects

Q: And the “inhibitory and therapeutic effects on CAL27 tumor model” value [4]?
A: strong inhibitory effects and therapeutic effects

Q: What about the AUC(0-inf) ([5]; 1 mg/kg Intravenous Injection) of the same compound?
A: 167 ng·h/mL

Q: And the AUC(0-t) ([5]; 1 mg/kg Intravenous Injection)?
A: 137 ng·h/mL

Q: What about the MRT inf ([5]; 1 mg/kg Intravenous Injection) of the same compound?
A: 2.88 h

Q: What about the clearance ([5]; 1 mg/kg Intravenous Injection) of the same compound?
A: 115 mL/min/kg

Q: And the half-life ([5]; 1 mg/kg Intravenous Injection)?
A: 2.31 h

Q: And the Vd ([5]; 1 mg/kg Intravenous Injection, read-out: Vss)?
A: 18.9 L/kg

Q: And the AUC(0-inf) ([5]; 5 mg/kg Oral Administration)?
A: 1600 ng·h/mL

Q: And the AUC(0-t) ([5]; 5 mg/kg Oral Administration)?
A: 1150 ng·h/mL

Q: What about the Cmax ([5]; 5 mg/kg Oral Administration) of the same compound?
A: 92.3 ng/mL

Q: What about the Tmax ([5]; 5 mg/kg Oral Administration) of the same compound?
A: 4.33 h

Q: What about the half-life ([5]; 5 mg/kg Oral Administration) of the same compound?
A: 7.11 h

Q: What about the “reversibility of toxicity reaction after drug withdrawal” value ([6]; rat, in vivo) of the same compound?
A: reversible

Q: And the toxicity reaction ([6]; rat, in vivo, 1 mg/kg)?
A: no toxicity reaction

Q: What about the toxicity reaction ([6]; rat, in vivo, 3 mg/kg) of the same compound?
A: no toxicity reaction

Q: And the “AUC relative to Afatinib in the same dosage” value ([6]; rats, oral, 28 days)?
A: about 5 times

Q: And the “time after drug withdrawal until weight close to control group” value ([6]; rats, 1, 3 and 10 mg/kg groups)?
A: 5 to 6 days

Q: What about the “weight recovery after drug withdrawal” value ([6]; rats, compound Ie 1, 3 and 10 mg/kg groups) of the same compound?
A: regain weight very quickly
